BigSolDB 2.1

Cc1c(C(=O)O)cc([N+](=O)[O-])cc1[N+](=O)[O-]
solubility (mole fraction)
Conditions	288.15 K	293.15 K	298.15 K	303.15 K	308.15 K	313.15 K	318.15 K	323.15 K	328.15 K	333.15 K
in acetonitrile	0.0071	0.0084	0.00994	0.012	0.0145	0.0176	0.0209	0.0248	0.0292	0.0341
in cyclohexane	1.4e-05	1.96e-05	2.69e-05	3.64e-05	4.87e-05	6.37e-05	8.12e-05	0.000103	0.000131	0.000166
in ethanol	0.0467	0.0526	0.0604	0.0695	0.0783	0.0882	0.099	0.11	0.123	0.134
in ethyl acetate	0.0237	0.0271	0.0312	0.0359	0.041	0.0467	0.0536	0.0611	0.0694	0.0781
in isopropanol	0.0102	0.0121	0.0147	0.017	0.0202	0.0232	0.0276	0.0327	0.0384	0.0442
in n-butanol	0.0109	0.0129	0.0152	0.0179	0.0209	0.0243	0.0284	0.034	0.0393	0.0457
in n-heptanol	0.0128	0.0146	0.017	0.0208	0.025	0.0295	0.0341	0.0396	0.0458	0.0524
in n-hexanol	0.00982	0.0114	0.0131	0.0151	0.0177	0.0208	0.0244	0.0288	0.0338	0.0394
in n-pentanol	0.012	0.0138	0.0165	0.0193	0.0226	0.026	0.0303	0.0356	0.0414	0.0478
in n-propanol	0.0126	0.0146	0.0169	0.0202	0.0239	0.0278	0.0326	0.0381	0.0442	0.0505
in sec-butanol	0.0114	0.0134	0.0158	0.0187	0.0219	0.0257	0.03	0.0349	0.0405	0.0467
in toluene	0.0174	0.0207	0.0242	0.0284	0.0328	0.0377	0.0434	0.0493	0.0558	0.0628
in water	1.67e-05	2.35e-05	3.5e-05	4.55e-05	5.87e-05	7.99e-05	0.000108	0.000137	0.000171	0.000218
